Series [1] deals with isolated guinea-pig tracheal rings precontracted with methacholine. The experiment in a line: Isolated tracheal rings from guinea-pig preconstricted with methacholine. The format is cell-based. The note with it: for inhibition at 0.001 µM: Cavia porcellus, read-out: % inhibition of 1 μM Methacholine induced tone; for % inhibition of 1 μM Methacholine induced tone: Formoterol 1 nM, Compound A or B 10 nM. How it is done: Evaluation of Compound Activity on Isolated Tracheal Rings from Guinea-Pig Preconstricted with Methacholine. […] Male albino Dunkin Hartley guinea-pigs (300-350 g) were killed by cervical dislocation and the trachea excised. Adherent connective tissue was removed and the trachea cut into ring segments (2-3 mm wide). These were suspended in 10 mL organ baths containing a modified Krebs solution composition (mM): NaCl 117.56, KCl 5.36, NaH2PO4 1.15, MgSO4 1.18, glucose 11.10, NaHCO3 25.00 and CaCl2 2.55. […] The tracheal rings were suspended between two stainless steel hooks, one attached to an isometric force transducer and the other to a stationary support in the organ bath. Changes in isometric force were recorded. Acetyl-β-methylcholine chloride (Methacholine), Indomethacin, Corticosterone-21-acetate, Phentolamine hydrochloride, Ascorbic acid, CGP20712A methanesulphate were obtained from the Sigma Chemical Company. […] At the beginning of each experiment a force of 1.0 g·wt. was applied to the tissues and this was reinstated over a 30 min equilibration period until it remained steady. […] Tissues were washed by exchanging the bathing Krebs solution three times. […] Data were collected using the ADInstruments Chart5 for windows software, the tension generated was measured before addition of methacholine and after its response had reached plateau. […] All responses were expressed as percentage inhibition of the methacholine-induced contraction. The results are depicted in FIG. 6 and Table 2, wherein compound A is (MA2). […] Tissues were washed by exchanging the bathing Krebs solution three times. […] Data were collected using the ADInstruments Chart5 for windows software, the tension generated was measured before addition of methacholine and after its response had reached plateau. […] All responses were expressed as percentage inhibition of the methacholine-induced contraction. The results are depicted in FIG. 7 and Table 3, wherein compound B is (MA11).

Series [2] has as its target T1, human muscarinic receptors (M3) (Homo sapiens, UniProt P20309).
T1 construct: purchased
Description: Muscarinic Receptor Radioligand Binding Assay ([3H]-NMS). The following applies: membranes expressing human M3. How it is done: The inhibitory effects of compounds of the muscarinic antagonists were determined by a Muscarinic Receptor Radioligand Binding Assay.
Radioligand binding studies utilising [^3H]-N-methyl scopolamine ([^3H]-NMS) and commercially available cell membranes expressing the human muscarinic receptors (M2 or M3) were used to assess the affinity of muscarinic antagonists for M2 and M3 receptors. Membranes in TRIS buffer were incubated in 96-well plates with [^3H]-NMS and M3 antagonist at various concentrations for 3 hours. Membranes and bound radioligand were then harvested by filtration and allowed to dry overnight. Scintillation fluid was then added and the bound radioligand counted using a Canberra Packard Topcount scintillation counter

The nature of series [3]: Gravimetric vapour sorption (GVS). The format is physicochemical. The following applies: at 80% RH, ambient temperature. How it is done: GVS profiles were measured using a Dynamic Vapour Sorption DVS-1 instrument. The solid sample ca. 1-5 mg was placed into a glass vessel and the weight of the sample was recorded during a dual cycle step method (40 to 90 to 0 to 90 to 0% relative humidity (RH), in steps of 10% RH). GVS profiles were recorded at ambient temperature.

In series [4] the test system is Methacholine-induced bronchoconstriction in the guinea pig. Description: Lung function in anaesthetised guinea pigs: methacholine-induced bronchoconstriction. The format is in vivo. The note with it: after 5 μg/kg methacholine i.v. As to the method: Evaluation of Lung Function in Anaesthetised Guinea Pigs.
Male Dunkin-Hartley guinea pigs (300-600 g) were weighed and dosed with vehicle (0.05M phosphate, 0.1% Tween 80, 0.6% saline, pH 6) or compound via the intratracheal route under recoverable gaseous anaesthesia (5% halothane in oxygen). Animals were dosed with compound or vehicle two hours prior to the administration of methacholine. Guinea pigs were anaesthetised with pentobarbitone (1 mL/kg of 60 mg/mL solution i.p.) approximately 30 minutes prior to the first bronchoconstrictor administration. The trachea was cannulated and the animal ventilated using a constant volume respiratory pump (Harvard Rodent Ventilator model 683) at a rate of 60 breath/min and a tidal volume of 5 mL/kg. A jugular vein was cannulated for the administration of methacholine or maintenance anaesthetic (0.1 mL of pentobarbitone solution, 60 mg/mL, as required).
The animals were transferred to a Flexivent System (SCIREQ, Montreal, Canada) in order to measure airway resistance. The animals were ventilated (quasi-sinusoidal ventilation pattern) at 60 breaths/min at a tidal volume of 5 mL/kg. A positive end expiratory pressure of 2-3 cm H2O was applied. Respiratory resistance was measured using the Flexivent “snapshot” facility (1 second duration, 1 Hz frequency). Once a stable baseline resistance value had been obtained the animals were given methacholine in ascending doses (0.5, 1, 2, 3 and 5 μg/kg, i.v) at approximately 4-minute intervals via the jugular catheter. After each administration of bronchoconstrictor the peak resistance value was recorded. Guinea pigs were euthanised with approximately 1.0 mL pentobarbitone sodium (Euthatal) intravenously after the completion of the lung function measurements.
Percentage bronchoprotection produced by a compound was calculated at each dose of brochoconstrictor as follows:
Where % change Rveh is the mean of the maximum percentage change in airway resistance in the vehicle treated group. The results reported were measured after 5 μg/kg methacholine and were expressed as percentage bronchoprotection (mean±s.e.mean).
Guinea pigs were dosed with vehicle, 3 and 27 μg/kg compound (BA1), 0.2 μg/kg compound (MA2) (Crystalline Form A) or a combination of 3 μg/kg Compound (BA1) and 0.2 μg/kg Compound (MA2) via the intratracheal route. Administration of increasing intravenous doses of methacholine (0.5, 1, 2, 3 and 5 μg/kg) evoked dose-related bronchoconstriction in the vehicle treated animals ranging from 13±2.6% at 0.5 μg/kg to 2530±280% at 5 μg/kg two hours after vehicle administration (n=9).
[…] Administration of increasing intravenous doses of methacholine (0.5, 1, 2, 3 and 5 μg/kg) evoked dose-related bronchoconstriction in the vehicle treated animals ranging from 14±2.6% at 0.5 μg/kg to 2240±269% at 5 μg/kg two hours after vehicle administration (n=10).

The mark [5] stands for this setting: MA2 0.2 μg/kg intratracheal, 2 hours prior to methacholine.
[6] abbreviates: MA11 at 0.2 μg/kg intratracheal.

The values that follow come from patent publication US20110046191A1, “COMBINATION OF A MUSCARINIC RECEPTOR ANTAGONIST AND A BETA-2-ADRENOCEPTOR AGONIST” (ARGENTA DISCOVERY LTD., priority 2007, published 2011).

By inhibition is commonly meant the drop in the measured response relative to a control, in per cent. What is called Ki is a dissociation constant, usually derived from enzyme kinetics or from competition with a known ligand.

The structures appear in SMILES notation. Where two headings read alike, the source gives them in different places.

T1 sequence (P20309 whole entry): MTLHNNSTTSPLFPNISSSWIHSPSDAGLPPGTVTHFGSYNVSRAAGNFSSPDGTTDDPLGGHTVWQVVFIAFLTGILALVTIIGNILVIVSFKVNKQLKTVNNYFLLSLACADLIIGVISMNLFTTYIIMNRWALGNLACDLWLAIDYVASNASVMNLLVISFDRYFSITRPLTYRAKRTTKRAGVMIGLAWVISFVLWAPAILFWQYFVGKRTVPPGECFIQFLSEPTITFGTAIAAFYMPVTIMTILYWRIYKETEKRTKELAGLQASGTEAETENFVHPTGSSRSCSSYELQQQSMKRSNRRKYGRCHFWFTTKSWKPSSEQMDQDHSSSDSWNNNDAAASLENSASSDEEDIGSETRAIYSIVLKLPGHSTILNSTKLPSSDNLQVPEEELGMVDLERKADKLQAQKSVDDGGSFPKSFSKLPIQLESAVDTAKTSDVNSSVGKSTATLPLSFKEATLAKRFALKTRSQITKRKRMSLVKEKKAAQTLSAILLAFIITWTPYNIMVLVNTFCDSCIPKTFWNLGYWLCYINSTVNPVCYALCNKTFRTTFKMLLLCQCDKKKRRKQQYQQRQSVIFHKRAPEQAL

Take `COc1ccc(CC(C)NCC(O)c2ccc(O)c(NC=O)c2)cc1` (centres unmarked) [Formoterol, N-[2-hydroxy-5-[(1)-1-hydroxy-2-[[(1)-2-(4-methoxyphenyl)-1-methylethyl]amino]ethyl]phenyl]-formamide, reference compound]: the inhibition at 0.001 µM stood at 21% in series [1] (10 min); 37% in series [1] (20 min); 41% in series [1] (0.5 h); 42% in series [1] (40 min); 44% in series [1] (50 min).

In series [2], `C[N+](C)(CCCOc1ccccc1)Cc1cnc([C@@](O)(c2ccccc2)C2CCCCC2)o1` [MA1, [2-((S)-Cyclohexyl-hydroxy-phenyl-methyl)-oxazol-5-ylmethyl]-dimethyl-(3-phenoxy-propyl)-ammonium bromide] registered a Ki of 9.4 nM.

Compound `C[N+](C)(CCCOc1ccccc1)Cc1cnc([C@](O)(c2ccccc2)C2CCCCC2)o1.[Br-]` [MA2 Crystalline Form A, [2-((R)-Cyclohexyl-hydroxy-phenyl-methyl)-oxazol-5-ylmethyl]-dimethyl-(3-phenoxy-propyl)-ammonium bromide] yielded a GVS weight increase in series [3] of 0.8 % w/w.

The compound `C[N+](C)(CCCOc1ccccc1)Cc1cnc([C@](O)(c2ccccc2)C2CCCCC2)o1.[Br-]` [MA2, [2-((R)-Cyclohexyl-hydroxy-phenyl-methyl)-oxazol-5-ylmethyl]-dimethyl-(3-phenoxy-propyl)-ammonium bromide] came in with a Ki in series [2] of 0.2 nM. For the same compound, the “% inhibition of 1 μM Methacholine induced tone” value in series [1] (10 min) came out at 23%; in series [1] (20 min) it was 62%; in series [1] (30 min) it was 94%; in series [1] (40 min) it was 104%; in series [1] (50 min), 106%. Besides, in series [4] (setting [5]), the increase in resistance is reported as 2210±268%. Further, the “inhibition of methacholine-induced bronchoconstriction” value in series [4] (setting [5]) was determined as 13%.

In series [2], `C[N+](C)(CCOCCc1ccccc1)Cc1cnc([C@](O)(c2ccccc2)C2CCCCC2)o1` [MA3, [2-((R)-Cyclohexyl-hydroxy-phenyl-methyl)-oxazol-5-ylmethyl]-dimethyl-(2-phenethyloxy-ethyl)-ammonium bromide] returned an inhibitory constant (Ki) of 0.6 nM.

On to `C[N+](C)(CCCOc1ccc(Cl)c(Cl)c1)Cc1cnc([C@](O)(c2ccccc2)C2CCCCC2)o1` [MA4, [2-((R)-Cyclohexyl-hydroxy-phenyl-methyl)-oxazol-5-ylmethyl]-[3-(3,4-dichloro-phenoxy)-propyl]-dimethyl-ammonium bromide], for which the Ki in series [2] stood at 0.9 nM.

Compound `C[N+](C)(CCOCc1ccc(Cl)c(Cl)c1)Cc1cnc([C@](O)(c2ccccc2)C2CCCCC2)o1` [MA5, [2-((R)-Cyclohexyl-hydroxy-phenyl-methyl)-oxazol-5-ylmethyl]-[2-(3,4-dichloro-benzyloxy)-ethyl]-dimethyl-ammonium bromide] registered a Ki in series [2] of 2.1 nM.

For the compound `C[N+](C)(CCOCc1ccc(Cl)cc1)Cc1cnc([C@](O)(c2ccccc2)C2CCCCC2)o1` [MA6, [2-(4-chloro-benzyloxy)-ethyl]-[2-((R)-cyclohexyl-hydroxy-phenyl-methyl)-oxazol-5-ylmethyl]-dimethyl-ammonium bromide], in series [2], the Ki came out at 0.6 nM.

As to `C[N+](C)(CCCOc1ccccc1)Cc1cnc([C@](O)(c2ccccc2)C2CCCCC2)o1` [MA7 Form 1, [2-((R)-Cyclohexyl-hydroxy-phenyl-methyl)-oxazol-5-ylmethyl]-dimethyl-(3-phenoxy-propyl)-ammonium hemi-naphthalene-1,5-disulfonate], the GVS weight increase in series [3] came to 3.1 % w/w.

Turning to `C[N+](C)(CCCOc1ccccc1)Cc1cnc([C@](O)(c2ccccc2)C2CCCCC2)o1` [MA7 Form 2, [2-((R)-Cyclohexyl-hydroxy-phenyl-methyl)-oxazol-5-ylmethyl]-dimethyl-(3-phenoxy-propyl)-ammonium hemi-naphthalene-1,5-disulfonate], in series [3], the GVS weight increase came to 0.7 % w/w.

The compound `C[N+](C)(CCCOc1ccccc1)Cc1cnc([C@](O)(c2ccccc2)C2CCCCC2)o1` [MA7 Form 3, [2-((R)-Cyclohexyl-hydroxy-phenyl-methyl)-oxazol-5-ylmethyl]-dimethyl-(3-phenoxy-propyl)-ammonium hemi-naphthalene-1,5-disulfonate] displayed a GVS weight increase in series [3] of 3.0 % w/w.

As for `C[N+](C)(CCOCc1ccc(Cl)cc1)Cc1cnc([C@](O)(c2ccccc2)C2CCCCC2)o1` [MA11, [2-(4-chloro-benzyloxy)-ethyl]-[2-((R)-cyclohexyl-hydroxy-phenyl-methyl)-oxazol-5-ylmethyl]-dimethyl-ammonium hemi-naphthalene-1,5-disulfonate], the “% inhibition of 1 μM Methacholine induced tone” value in series [1] (10 min) is recorded as 11%; in series [1] (20 min), 29%; in series [1] (30 min) it was 49%; in series [1] (40 min), 67%; in series [1] (50 min) it was 84%. Moreover, in series [4] (setting [6]), the increase in resistance is listed as 1880±272%. In series [4] (setting [6]), the “inhibition of methacholine-induced bronchoconstriction” value is recorded as 16%.
